Tests used:
TNF-α = assay: tumor necrosis factor alpha (TNF-α) assay; type: cell-based; details: FIG. 1; y-axis TNF-α in picograms per milliliter, lower values mean lower inflammation in the cell
Description: (§1) The fractions isolated may be tested for activity against COX-2 or TNF-α using assays as would be known to those having skill in the art. Representative examples of such assays that could be used include a COX-2 inhibitory fluorometric assay or a TNF-α inhibitory fluorometric assay, each of which are commercially available from numerous suppliers.
(§2) The crude sample provided was dissolved in Ethyl acetate and dried down on Silica gel in a 1:3 ratio. Medium pressure chromatography was performed using a Teledyne-Isco combi-flash Torrent system. A 750 gram silica column was used with a Hexanes to Ethyl acetate gradient, which gave 11 fractions. Fraction A was then subjected to high pressure liquid chromatography on a preparative Silica NP column (250×20 mm), with a gradient between Hexanes to 20% ethyl acetate, which gave 4 fractions. The active fraction was further purified, with a gradient of Hexanes to 100% ethyl acetate on a preparative Silica NP column (250×20 mm), which gave 23 fractions. Fraction 17 was subjected to two rounds of NP hplc using an analytical Silica column (250×10 mm), which gave the final pure compound. An LC-20AD Shimadzu system and an SPD-20A UV detector was used for the hplc separations. All steps were guided using bioassay data from the COX-2 and TNF-α assays. […]

COX-2 = molecular target: T1, COX-2 (Homo sapiens, UniProt P35354); assay: COX-2 assay; type: biochemical; details: FIG. 2; compared to control diclofenac and dimethyl sulfoxide blank
T1 sequence (P35354 18-604): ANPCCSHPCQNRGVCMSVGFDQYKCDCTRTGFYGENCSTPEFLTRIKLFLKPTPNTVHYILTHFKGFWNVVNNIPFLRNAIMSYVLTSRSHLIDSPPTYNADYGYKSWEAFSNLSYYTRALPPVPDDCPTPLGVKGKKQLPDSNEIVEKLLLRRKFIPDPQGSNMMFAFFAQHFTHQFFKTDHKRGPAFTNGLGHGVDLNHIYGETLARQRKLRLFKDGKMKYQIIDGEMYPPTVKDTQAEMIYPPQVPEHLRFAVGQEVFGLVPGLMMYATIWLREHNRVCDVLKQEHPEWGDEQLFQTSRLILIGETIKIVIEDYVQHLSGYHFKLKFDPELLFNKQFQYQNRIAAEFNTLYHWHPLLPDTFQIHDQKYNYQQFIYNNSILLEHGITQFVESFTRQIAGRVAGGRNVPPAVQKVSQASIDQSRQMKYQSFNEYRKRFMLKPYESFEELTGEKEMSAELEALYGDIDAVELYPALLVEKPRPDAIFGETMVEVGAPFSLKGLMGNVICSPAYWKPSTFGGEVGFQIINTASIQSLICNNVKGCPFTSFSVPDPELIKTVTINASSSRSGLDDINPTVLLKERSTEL
Description: as §1, §2

inhibitory activity on COX-2 (level of prostaglandins in the sample) (COX-2): limited to no inhibitory activity
SMILES: C[C@@]12CCC[C@@H]3c4ccccc4[C@@H](C[C@@H]31)OC2=O [compound of formula (I)]
inhibitory activity of TNF-α (levels of TNF-α) (TNF-α): inhibitory activity

From patent publication US11759448B2, “Methods for the treatment of inflammation” (University of South Florida, priority 2020, dated 2023)
